Key:
[1] = system: lactate dehydrogenase (LDH) level in cell culture medium; experiment: LDH cytotoxicity assay of cell culture medium; assay type: cell-based; settings: up to 30 μM, 16 hours of incubation
Description: Medium LDH measurement was performed using LDH Cytotoxicity Assay Kit (ThermoFisher scientific, NY) according to manufacturer's instructions.
In order to rule out the possibility that the reduction in Smad3 activity is due to the cytotoxicity of increasing concentration of compound, lactate dehydrogenase (LDH) level in cell culture medium was examined. LDH is released by damaged cells.

Smad3 phosphorylation = experiment: TGF-β1-induced Smad3 phosphorylation in hRTECs (western blot); assay type: cell-based, human; settings: pretreatment, TGF-β1 5 ng/ml for 20 minutes
Description: (§1) HEK 293T (293T) cells (ATCC) were cultured in Dulbecco's Modified Eagle's medium (Invitrogen) containing 10% fetal bovine serum (FBS), 0.5% penicillin and streptomycin at 37° C. and 5% CO2 humidified environment. Human primary tubular cells (PromoCell GmbH, Heidelberg, Germany) were cultured in Renal Epithelial Cell Growth Medium-2 (Promocell GmbH) with supplements according to manufacturer's protocol human primary renal tubular epithelial cells with <5 passages were used for all studies. For HIV infection of hRTECs, pNL4-3:ΔG/P-EGFP, a gag/poi-deleted HIV-1 construct that contains EGFP in the gag open reading frame, and pHR-IRES-EGFP, a control EGFP construct, were used to generate the VSV-G pseudotyped virus. Cells were infected with HIV pseudotyped virus or control virus for 2 days before the treatment with test compound.
Cells were lysed in M-PER mammalian protein extraction reagent (#78501, Thermo Fisher Scientific, NY) containing protease inhibitor cocktail (#11836153001, Roche) and phosphatase inhibitors (50 mM NaF, 10 mM β-glycerophosphate, 5 mM sodium pyrophosphate, 2 mM Na3VO4). Total protein concentration was measured using the Bradford reagent (#500-0006, Bio-Rad). Proteins were separated on SDA-PAGE and transferred to nitrocellulose membrane. […]

[2] = system: TGF-β1/Smad3 downstream target genes (Col I, CTGF, FN1, MMP2, PAI1, α-SMA); experiment: Real-time PCR of TGF-β1/Smad3 downstream target genes in hRTECs; assay type: cell-based, human
Description: as §1
Total RNA was extracted using Trizol (Invitrogen). 400 ng of total RNA was reverse transcribed to cDNA using SuperScript III first strand synthesis system (Invitrogen).
Quantitative RT-PCR was performed using 7500 Real-Time PCR System (Applied Biosystems). Gene level was normalized to glyceraldehyde 3-phosphate dehydrogenase (GAPDH) and expressed as fold change. The primer sets used were as follows:
The effects of compounds of the invention on Smad3 phosphorylation and the expression of the downstream target genes of TGF-β/Smad3 pathway was also examined. […]

UUO mice = experiment: Unilateral ureteral obstruction (UUO) mouse model of renal fibrosis; assay type: in vivo; settings: for fibrosis at 14 days post-surgery (picosirius red, Masson's trichrome, Collagen I immunofluorescence): administration starting at day 7 post-surgery (day 7 to 14)
Description: (§2) Tg26 mice of FVB/N genetic background bearing a defective HIV-1 provirus lacking gag-pol have been described by Feng et al. [J Am Soc Nephrol 2009; 20: 2138-2146]. Six-week old heterozygous Tg26 mice were used in this study. Wildtype littermates were used as controls. Mice in the treatment group received test compound dissolved in DMSO and diluted in saline (5% DMSO) by oral gavage at a dose of 200 μg/kg body weight per day. Mice in the control group received the same volume of 5% DMSO/saline vehicle. The mice were treated for a total of 4 weeks and sacrificed at age of 10 weeks. The UUO model was established in male C57BL/6 mice (The Jackson Laboratory) by ligation of the left ureter as described by Jin et al. [Lab Invest, 93: 801-811, 2013]. After the operation, UUO mice were randomly divided into control group (vehicle) and treatment group. Mice were fed with test compound by oral gavage at a dose of 200 μg/kg body weight per day for 7 days.
(§3) Immunofluorescence staining was conducted on paraffin-embedded kidney sections using standard procedures. Briefly, deparaffinized sections were incubated with primary antibody against collagen I (1:50, #NB6-00-4-8, Novus) at 4° C. overnight. After being washed, sections were incubated with Alexa Fluor488-labelled second antibody (1:200, #A11034, Invitrogen) at room temperature for 1 hour in darkness. After nuclei were stained with 4′, 6-diamidino-2-phenyllindole (DAPI) slides were mounted using Aqua PolyMount (Polysciences, Inc) and images were acquired using AxioVision IIe microscope with a digital camera.
(§4) Renal fibrosis was evaluated histologically by Sirius red staining on paraffin slides of mice kidney tissues according to the manufacturer's instructions (#ab150681, Abcam). Masson's trichrome staining on paraffin slices of mice kidney tissue was performed according to manufacturer's instructions (#87019, Thermo Scientific).
The unilateral ureteral obstruction (UUO) mouse model, a commonly used model for renal fibrosis, was used to determine whether compounds of the invention can ameliorate fibrosis in vivo. […]

Tg26 mice = experiment: Tg26 (HIV-1 transgenic) mouse model of kidney disease; assay type: in vivo
Description: as §2, §3, §4
Tg26 mice are known to develop proteinuria starting from 4 weeks of age and the proteinuria peaks usually around 8-10 weeks of age. Tg26 mice also develop significant glomerulosclerosis and renal failure by 8-10 weeks of age. To determine whether compounds of the invention could reverse kidney injury that has been already developed, we started to treat Tg26 mice with either vehicle or Example 1 from age of 6 weeks for a total of 4 weeks, and the mice were sacrificed at age of 10 weeks.

HIPK2 = HIPK2 (Homo sapiens, UniProt Q9H2X6); experiment: HIPK2 kinase assay (ProQinase GmbH); assay type: biochemical; design: purchased ProQinase GmbH (Freiburg, Germany), assay service; settings: increasing concentrations
Chain of HIPK2 (Q9H2X6 whole entry): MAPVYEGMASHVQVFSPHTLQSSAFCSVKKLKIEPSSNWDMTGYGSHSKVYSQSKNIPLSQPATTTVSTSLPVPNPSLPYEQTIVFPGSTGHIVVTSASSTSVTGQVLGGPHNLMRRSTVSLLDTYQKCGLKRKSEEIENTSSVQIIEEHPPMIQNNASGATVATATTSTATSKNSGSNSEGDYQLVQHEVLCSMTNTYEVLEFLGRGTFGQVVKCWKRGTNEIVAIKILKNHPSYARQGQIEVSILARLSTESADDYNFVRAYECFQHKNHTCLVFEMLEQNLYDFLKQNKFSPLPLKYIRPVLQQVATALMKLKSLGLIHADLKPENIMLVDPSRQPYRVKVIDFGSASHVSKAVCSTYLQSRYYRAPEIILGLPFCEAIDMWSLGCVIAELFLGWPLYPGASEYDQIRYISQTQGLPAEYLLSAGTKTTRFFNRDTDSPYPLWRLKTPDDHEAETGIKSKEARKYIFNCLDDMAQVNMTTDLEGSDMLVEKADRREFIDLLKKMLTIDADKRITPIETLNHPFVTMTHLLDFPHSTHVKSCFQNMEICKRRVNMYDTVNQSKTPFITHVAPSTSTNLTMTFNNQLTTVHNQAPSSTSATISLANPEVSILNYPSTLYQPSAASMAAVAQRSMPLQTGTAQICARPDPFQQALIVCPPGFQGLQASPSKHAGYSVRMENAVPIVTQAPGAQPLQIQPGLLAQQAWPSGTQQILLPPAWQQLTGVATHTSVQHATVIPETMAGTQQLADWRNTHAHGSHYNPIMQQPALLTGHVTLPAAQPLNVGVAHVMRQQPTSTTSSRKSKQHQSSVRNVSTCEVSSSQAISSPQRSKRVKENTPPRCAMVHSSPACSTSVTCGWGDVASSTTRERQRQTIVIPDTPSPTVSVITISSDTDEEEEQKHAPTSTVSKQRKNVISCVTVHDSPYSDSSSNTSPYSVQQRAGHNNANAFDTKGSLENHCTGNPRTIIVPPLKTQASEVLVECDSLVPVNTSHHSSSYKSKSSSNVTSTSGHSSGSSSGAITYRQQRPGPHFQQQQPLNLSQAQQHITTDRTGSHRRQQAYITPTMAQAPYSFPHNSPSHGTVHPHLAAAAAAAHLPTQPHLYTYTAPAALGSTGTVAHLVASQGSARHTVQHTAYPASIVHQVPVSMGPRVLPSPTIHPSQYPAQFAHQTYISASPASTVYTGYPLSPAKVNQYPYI
Description: HIPK2 kinase assay was performed by ProQinase GmbH (Freiburg, Germany).
Kinase assay was performed by ProQinase GmbH (Freiburg, Germany).

[3] = Tg26 mice treated from age of 6 weeks for 4 weeks, vs vehicle
[4] = Tg26 mice, post-treatment (week 4), 200 μg/kg/day oral gavage
[5] = Tg26 mice, pre-treatment (week 0)
[6] = Wildtype mice, post-treatment (week 4), 200 μg/kg/day oral gavage
[7] = Wildtype mice, pre-treatment (week 0)

## COc1ccc2cc(-c3nc(-c4ccc(Br)cc4)no3)cnc2c1 [Example 1, 3-(4-Bromophenyl)-5-(7-methoxyquinolin-3-yl)-1,2,4-oxadiazole]
[1]
  LDH level in the culture medium: no significant increase
Smad3 phosphorylation
  Smad3 phosphorylation induced by TGF-β1: gradually inhibited
[2]; absence of TGF-β1 stimulation
  expression of Col I, CTGF, FN1, MMP2, PAI1 and α-SMA (real-time PCR): did not affect expression
[2]; treated with TGF-β1, increasing concentrations
  expression of Col I, CTGF, FN1, MMP2, PAI1 and α-SMA (real-time PCR): progressively inhibited
UUO mice; UUO kidneys, treatment day 7 to 14
  expression of Wnt/β-catenin pathway genes (Axin2, c-myc, Twist), real-time PCR: significantly diminished
UUO mice; UUO mice, 200 μg/kg/day oral gavage, day of surgery to 7 days post-surgery
  Smad3 phosphorylation and α-SMA expression in UUO kidneys (western blot): significantly decreased
UUO mice; UUO mice, 200 μg/kg/day oral gavage, day of surgery to 7 days post-surgery, vs vehicle
  renal fibrosis (picrosirius red, Masson's trichrome, Collagen I immunofluorescence): significantly attenuated renal fibrosis
UUO mice; UUO mice, listed as BT173
  fibrosis at 14 days post-surgery (picosirius red, Masson's trichrome, Collagen I immunofluorescence): significant attenuation of fibrosis
UUO mice; UUO mice, listed as Example I
  fibrosis at 14 days post-surgery (picosirius red, Masson's trichrome, Collagen I immunofluorescence): showed efficacy in amelioration of fibrosis progression
UUO mice; UUO mice, treatment day 7 to 14
  p53 activation (phosphorylation) in UUO kidneys: no effects
UUO mice; UUO mice, treatment day 7 to 14, vs vehicle-treated UUO kidneys
  p-Smad3 and α-SMA in kidney cortex (western blot): marked reduction
Tg26 mice; Tg26 mice
  Smad3 phosphorylation and α-SMA expression: significantly reduced
  kidney injury and renal fibrosis (picrosirius red, Masson's trichrome, Collagen I immunofluorescence): attenuated kidney injury and renal fibrosis
Tg26 mice; [3]
  proteinuria: significantly reduced proteinuria
  renal function: improved renal function
Tg26 mice; [4]
  BUN: 22.404 ± 4.678 mg/dL
  Urinary Albumin:Creatinine Ratio: 19.917 ± 5.838 µg/µg
Tg26 mice; [5]
  BUN: 23.799 ± 1.990 mg/dL
  Urinary Albumin:Creatinine Ratio: 23.321 ± 12.339 µg/µg
Tg26 mice; [6]
  BUN: 18.875 ± 3.485 mg/dL
  Urinary Albumin:Creatinine Ratio: 0.036 ± 0.008 µg/µg
Tg26 mice; [7]
  BUN: 21.091 ± 3.009 mg/dL
  Urinary Albumin:Creatinine Ratio: 0.033 ± 0.007 µg/µg
HIPK2
  inhibition of HIPK2 kinase activity: No inhibition

— patent publication US10669266B2, “Oxadiazole inhibitors of HIPK2 for treating kidney fibrosis” (ICAHN SCHOOL OF MEDICINE AT MOUNT SINAI, priority 2017, dated 2020)
